Consider 27 compounds from patent publication US11084829B2, “Ubiquitin-specific-processing protease 7 (USP7) modulators and uses thereof” (RAPT THERAPEUTICS, INC., priority 2018, dated 2021).

This test has as its target USP7 (Homo sapiens, UniProt Q93009). The test can be described thus: USP7 inhibitory potency (IC50). Format: biochemical. As to the method:
Activity for compounds described herein is provided in Table 2, wherein potency levels are provided as follows: (Potency: USP7 IC50: A<0.01 μM; B=0.01-0.1 μM; C=>0.1 μM.

Sequence of USP7 (Q93009 whole entry): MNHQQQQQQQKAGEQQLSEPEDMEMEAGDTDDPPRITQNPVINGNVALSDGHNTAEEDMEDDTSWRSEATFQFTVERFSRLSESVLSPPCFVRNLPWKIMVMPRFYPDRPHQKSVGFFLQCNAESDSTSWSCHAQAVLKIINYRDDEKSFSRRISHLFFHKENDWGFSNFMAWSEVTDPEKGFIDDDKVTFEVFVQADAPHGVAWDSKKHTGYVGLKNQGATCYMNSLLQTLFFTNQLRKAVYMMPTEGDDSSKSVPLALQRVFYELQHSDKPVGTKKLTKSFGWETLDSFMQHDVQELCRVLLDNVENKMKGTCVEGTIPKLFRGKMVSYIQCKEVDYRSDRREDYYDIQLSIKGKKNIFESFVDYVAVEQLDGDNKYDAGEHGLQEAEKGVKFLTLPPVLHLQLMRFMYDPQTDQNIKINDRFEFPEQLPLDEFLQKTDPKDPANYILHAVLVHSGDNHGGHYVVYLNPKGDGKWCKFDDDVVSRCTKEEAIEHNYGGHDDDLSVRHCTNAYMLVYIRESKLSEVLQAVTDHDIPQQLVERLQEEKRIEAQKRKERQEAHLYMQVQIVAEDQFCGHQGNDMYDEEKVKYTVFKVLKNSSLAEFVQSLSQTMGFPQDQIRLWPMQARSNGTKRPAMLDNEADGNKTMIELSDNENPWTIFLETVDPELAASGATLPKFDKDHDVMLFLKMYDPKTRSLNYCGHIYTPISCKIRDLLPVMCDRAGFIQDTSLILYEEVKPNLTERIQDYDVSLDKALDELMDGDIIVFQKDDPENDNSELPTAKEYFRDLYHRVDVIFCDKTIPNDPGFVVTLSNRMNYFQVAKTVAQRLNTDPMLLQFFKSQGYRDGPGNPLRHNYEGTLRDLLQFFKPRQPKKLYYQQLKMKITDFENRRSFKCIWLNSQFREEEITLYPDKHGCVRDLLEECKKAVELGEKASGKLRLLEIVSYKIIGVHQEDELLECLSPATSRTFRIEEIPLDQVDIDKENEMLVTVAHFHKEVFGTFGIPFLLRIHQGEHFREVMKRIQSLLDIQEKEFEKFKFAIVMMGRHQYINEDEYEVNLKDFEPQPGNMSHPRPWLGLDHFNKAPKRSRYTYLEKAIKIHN

Take `Cc1cc(Cl)cc(-c2ccnc3cc(Cn4c(=O)ccn(CC(F)(F)F)c4=O)sc23)c1CN1CCNCC1` [Example 2, 3-((7-(5-chloro-3-methyl-2-(piperazin-1-ylmethyl)phenyl)thieno[3,2-b]pyridin-2-yl)methyl)-1-(2,2,2-trifluoroethyl)pyrimidine-2,4(1H,3H)-dione]: the concentration for half-maximal inhibition (IC50) (usually the midpoint of a concentration-inhibition curve) was less than 10 nM.

On to `CN1CCC(=O)N(Cc2cc3ncnc(-c4cc(Cl)cc(Cl)c4CC4CNCC(C)(C)O4)c3s2)C1=O` (stereo not drawn) [Example 210, 3-((4-(3,5-dichloro-2-((6,6-dimethylmorpholin-2-yl)methyl)phenyl)thieno[3,2-d]pyrimidin-6-yl)methyl)-1-methyldihydropyrimidine-2,4(1H,3H)-dione], for which the IC50 was less than 10 nM.

`Cc1cc(Cl)cc(-c2ncnc3cc(CN4CC(CO)CC4=O)sc23)c1C[C@@H]1CNCC(C)(C)O1` (stereo partly drawn) [Example 231, 1-((4-(5-chloro-2-(((R)-6,6-dimethylmorpholin-2-yl)methyl)-3-methylphenyl)thieno[3,2-d]pyrimidin-6-yl)methyl)-4-(hydroxymethyl)pyrrolidin-2-one] returned an IC50 of 10 to 100 nM.

Compound `Cc1cc(Cl)cc(-c2ncnc3cc(CN4C(=O)C5CC5C4=O)sc23)c1CC1CNCCS1` (stereo not drawn) [Example 186, 3-((4-(5-chloro-3-methyl-2-(thiomorpholin-2-ylmethyl)phenyl)thieno[3,2-d]pyrimidin-6-yl)methyl)-3-azabicyclo[3.1.0]hexane-2,4-dione] had a half-maximal inhibitory concentration (IC50) of less than 10 nM.

Consider `Cc1cc(Cl)cc(-c2ncnc3cc(Cn4c(C#N)cccc4=O)sc23)c1C[C@@H]1CNCC(C)(C)O1` [Example 262, (R)-1-((4-(5-chloro-2-((6,6-dimethylmorpholin-2-yl)methyl)-3-methylphenyl)thieno[3,2-d]pyrimidin-6-yl)methyl)-6-oxo-1,6-dihydropyridine-2-carbonitrile], for which the half-inhibitory concentration (IC50) was more than 100 nM.

In the case of `Cc1cc(Cl)cc(-c2ccnc3cc(CN4C(=O)CCC4=O)sc23)c1CN1CCN(C(C)C)C[C@@H]1C` [Example 21, (S)-1-((7-(5-chloro-2-((4-isopropyl-2-methylpiperazin-1-yl)methyl)-3-methylphenyl)thieno[3,2-b]pyridin-2-yl)methyl)pyrrolidine-2,5-dione], the IC50 was less than 10 nM.

In the case of `Cc1cc(Cl)cc(-c2ncnc3cc(C(C)N4C(=O)C5C(C4=O)C5(C)C)sc23)c1C[C@@H]1CNCCO1` (stereo partly drawn) [Example 209, 3-(1-(4-(5-chloro-3-methyl-2-(((R)-morpholin-2-yl)methyl)phenyl)thieno[3,2-d]pyrimidin-6-yl)ethyl)-6,6-dimethyl-3-azabicyclo[3.1.0]hexane-2,4-dione], the IC50 is less than 10 nM.

`Cc1ccc(CN2CCNC[C@@H]2C)c(-c2ncnc3cc(CN4C(=O)C5CC5C4=O)sc23)c1` (stereo partly drawn) [Example 62, 3-((4-(5-methyl-2-(((S)-2-methylpiperazin-1-yl)methyl)phenyl)thieno[3,2-d]pyrimidin-6-yl)methyl)-3-azabicyclo[3.1.0]hexane-2,4-dione] showed an IC50 of more than 100 nM.

In turn, `Cc1cc(Cl)cc(-c2ncnc3cc(CN4C(=O)CN(CC(F)F)C4=O)sc23)c1CN1[C@@H](C)CNC[C@@H]1C` [Example 277, 3-((4-(5-chloro-2-(((2S,6S)-2,6-dimethylpiperazin-1-yl)methyl)-3-methylphenyl)thieno[3,2-d]pyrimidin-6-yl)methyl)-1-(2,2-difluoroethyl)imidazolidine-2,4-dione] gave an IC50 of less than 10 nM.

Turning to `Cc1cc(Cl)cc(-c2ncnc3cc(CN4C(=O)CCC4=O)sc23)c1C[C@@H]1CNCC(C)(C)O1` [Example 215, (R)-1-((4-(5-chloro-2-((6,6-dimethylmorpholin-2-yl)methyl)-3-methylphenyl)thieno[3,2-d]pyrimidin-6-yl)methyl)pyrrolidine-2,5-dione], the half-inhibitory concentration (IC50) was less than 10 nM.

`Cc1cc(Cl)cc(-c2ccnc3c(F)c(CN4C(=O)C5C(C4=O)C5(C)C)sc23)c1C[C@@H]1CNCCO1` (stereo partly drawn) [Example 146, 3-((7-(5-chloro-3-methyl-2-(((R)-morpholin-2-yl)methyl)phenyl)-3-fluorothieno[3,2-b]pyridin-2-yl)methyl)-6,6-dimethyl-3-azabicyclo[3.1.0]hexane-2,4-dione] showed a half-maximal inhibitory concentration (IC50) of 10 to 100 nM.

As for `CC1(C)C2C(=O)N(Cc3cc4nccc(-c5cc(Cl)cc(Cl)c5CC5CNCCO5)c4s3)C(=O)C21` (stereo not drawn) [Example 140, 3-((7-(3,5-dichloro-2-(morpholin-2-ylmethyl)phenyl)thieno[3,2-b]pyridin-2-yl)methyl)-6,6-dimethyl-3-azabicyclo[3.1.0]hexane-2,4-dione], the IC50 was less than 10 nM.

`Cc1cc(Cl)cc(-c2ccnc3cc(CN4C(=O)C5CC5C4=O)sc23)c1C[C@H]1OCCN[C@H]1C` (stereo partly drawn) [Example 106, 3-((7-(5-chloro-3-methyl-2-(((2R,3 S)-3-methylmorpholin-2-yl)methyl)phenyl)thieno[3,2-b]pyridin-2-yl)methyl)-3-azabicyclo[3.1.0]hexane-2,4-dione] gave a half-maximal inhibitory concentration (IC50) of less than 10 nM.

With `Cc1cc(Cl)cc(-c2ccnc3cc(CN4C(=O)CCC4=O)sc23)c1CN1CCNCC1C(F)F` (stereo not drawn) [Example 16, 1-((7-(5-chloro-2-((2-(difluoromethyl)piperazin-1-yl)methyl)-3-methylphenyl)thieno[3,2-b]pyridin-2-yl)methyl)pyrrolidine-2,5-dione], the IC50 lay within 10 to 100 nM.

With `Cc1cc(Cl)cc(-c2ncnc3cc(CN4C(=O)C5CC5C4=O)sc23)c1CN1CCNC[C@@H]1C` (stereo partly drawn) [Example 51, 3-((4-(5-chloro-3-methyl-2-(((S)-2-methylpiperazin-1-yl)methyl)phenyl)thieno[3,2-d]pyrimidin-6-yl)methyl)-3-azabicyclo[3.1.0]hexane-2,4-dione], the half-inhibitory concentration (IC50) was less than 10 nM.

`Cc1cc(Cl)cc(-c2ncnc3cc(CN4CCCCC4=O)sc23)c1CC1CNCCO1` (stereo not drawn) [Example 175, 1-((4-(5-chloro-3-methyl-2-(morpholin-2-ylmethyl)phenyl)thieno[3,2-d]pyrimidin-6-yl)methyl)piperidin-2-one] had an IC50 of more than 100 nM.

The compound “3-((7-(3,5-dichloro-2-(((2S,6S)-2,6-dimethylpiperazin-1-yl)methyl)phenyl)thieno[3,2-b]pyridin-2-yl)methyl)-1-methyldihydropyrimidine-2,4(1H,3H)-dione [Example 93]” had a half-inhibitory concentration (IC50) of less than 10 nM.

In turn, `Cc1cc(Cl)cc(-c2ncnc3cc(Cn4c(=O)cc[nH]c4=O)sc23)c1C[C@@H]1CNCC(C)(C)O1` [Example 266, (R)-3-((4-(5-chloro-2-((6,6-dimethylmorpholin-2-yl)methyl)-3-methylphenyl)thieno[3,2-d]pyrimidin-6-yl)methyl)pyrimidine-2,4(1H,3H)-dione] displayed a half-inhibitory concentration (IC50) of 10 to 100 nM.

`Cc1cc(Cl)cc(-c2ccnc3cc(CN4C(=O)C5C(C4=O)C5(C)C)sc23)c1CN1[C@@H](C)CNC[C@@H]1C` (stereo partly drawn) [Example 28, 3-((7-(5-chloro-2-(((2S,6S)-2,6-dimethylpiperazin-1-yl)methyl)-3-methylphenyl)thieno[3,2-b]pyridin-2-yl)methyl)-6,6-dimethyl-3-azabicyclo[3.1.0]hexane-2,4-dione] displayed an IC50 of less than 10 nM.

`Cc1cc(Cl)cc(-c2ncnc3cc(CN4C(=O)CCC4=O)sc23)c1C[C@H]1CNCC(C)(C)O1` [Example 212, (S)-1-((4-(5-chloro-2-((6,6-dimethylmorpholin-2-yl)methyl)-3-methylphenyl)thieno[3,2-d]pyrimidin-6-yl)methyl)pyrrolidine-2,5-dione]: the half-maximal inhibitory concentration (IC50) lay within 10 to 100 nM.

In turn, `Cc1cc(Cl)cc(-c2ncnc3cc(CN4C(=O)C5CC5C4=O)sc23)c1CC1OCCNC1(C)C` (stereo not drawn) [Example 159, 3-((4-(5-chloro-2-((3,3-dimethylmorpholin-2-yl)methyl)-3-methylphenyl)thieno[3,2-d]pyrimidin-6-yl)methyl)-3-azabicyclo[3.1.0]hexane-2,4-dione] yielded an IC50 of 10 to 100 nM.

As for `Cc1cc(Cl)cc(-c2ccnc3cc(CN4C(=O)C5CC5C4=O)sc23)c1CN1[C@@H](C)CN(C(C)C)C[C@@H]1C` (stereo partly drawn) [Example 32, 3-((7-(5-chloro-2-(((2S,6S)-4-isopropyl-2,6-dimethylpiperazin-1-yl)methyl)-3-methylphenyl)thieno[3,2-b]pyridin-2-yl)methyl)-3-azabicyclo[3.1.0]hexane-2,4-dione], the IC50 was less than 10 nM.

`Cc1cc(Cl)cc(-c2ncnc3cc(CN4C(=O)C5CC5C4=O)sc23)c1CC1CNCC2(COC2)O1` (stereo not drawn) [Example 220, 3-((4-(2-((2,5-dioxa-8-azaspiro[3.5]nonan-6-yl)methyl)-5-chloro-3-methylphenyl)thieno[3,2-d]pyrimidin-6-yl)methyl)-3-azabicyclo[3.1.0]hexane-2,4-dione] yielded a half-maximal inhibitory concentration (IC50) of less than 10 nM.

On to `Cc1cc(Cl)cc(-c2ccnc3cc(CN4C(=O)CCCC4C(F)(F)F)sc23)c1CC1CNCCO1` (stereo not drawn) [Example 122, 1-((7-(5-chloro-3-methyl-2-(morpholin-2-ylmethyl)phenyl)thieno[3,2-b]pyridin-2-yl)methyl)-6-(trifluoromethyl)piperidin-2-one], for which the concentration for half-maximal inhibition (IC50) was more than 100 nM.

The compound `C[C@H]1CNCCN1Cc1c(F)cccc1-c1ncnc2cc(CN3C(=O)C4CC4C3=O)sc12` (stereo partly drawn) [Example 72, 3-((4-(3-fluoro-2-(((S)-2-methylpiperazin-1-yl)methyl)phenyl)thieno[3,2-d]pyrimidin-6-yl)methyl)-3-azabicyclo[3.1.0]hexane-2,4-dione] yielded an IC50 of more than 100 nM.

Compound `Cc1cc(Cl)cc(-c2ncnc3cc(CN4C(=O)C5CCCN5C4=O)sc23)c1CN1[C@@H](C)CNC[C@@H]1C` (stereo partly drawn) [Example 86, 2-((4-(5-chloro-2-(((2S,6S)-2,6-dimethylpiperazin-1-yl)methyl)-3-methylphenyl)thieno[3,2-d]pyrimidin-6-yl)methyl)tetrahydro-1H-pyrrolo[1,2-c]imidazole-1,3(2H)-dione] gave a concentration for half-maximal inhibition (IC50) of less than 10 nM.

Compound `Cc1cc(Cl)cc(-c2ccnc3c(F)c(CN4C(=O)CCN(C)C4=O)sc23)c1C[C@@H]1CNCCO1` [Example 148, (R)-3-((7-(5-chloro-3-methyl-2-(morpholin-2-ylmethyl)phenyl)-3-fluorothieno[3,2-b]pyridin-2-yl)methyl)-1-methyldihydropyrimidine-2,4(1H,3H)-dione] gave an IC50 of 10 to 100 nM.
